Results from patent US20240067693A1, “POLYPEPTIDES AND USES THEREOF” (MEDIMMUNE LIMITED, priority 2020, published 2024).
Numbered stars: 1 amine (or outer) side, 2 acyl side, 3 side chain; on linkers, the order of the positions; unused ones are H or OH. Bridge positions count the residues as written; N and C are the ends. Square brackets hold non-standard residues; d marks the D form. Side chains are listed from the residue outwards. Ends that are not written are not given here. Peptide text beside a SMILES is read from it. * marks the point of attachment. C18 diacid = O=C(O)CCCCCCCCCCCCCCCCC(=O)*; γGlu = O=C(O)[C@H](CCC(=O)[*:2])N[*:1]; Aib = CC(C)(N)C(=O)O

Tests used:
[1] = Roth et al. Br J Pharmacol 2012; cited from earlier work
[2] = Pharmacokinetic determination via IV and SC administration in Sprague Dawley rats; conditions: male, rat, plasma, 20 nmol/kg
[3] = biological target: T1, rat calcitonin receptor (rat CTR) (Rattus norvegicus, UniProt P32214); experiment: cAMP production in HEK cells with stable recombinant expression of rat calcitonin receptor (rat CTR); format: cell-based; conditions: assay buffer with 0.1% BSA
T1 construct: expressed in transfected cells
T1 sequence (P32214 25-516): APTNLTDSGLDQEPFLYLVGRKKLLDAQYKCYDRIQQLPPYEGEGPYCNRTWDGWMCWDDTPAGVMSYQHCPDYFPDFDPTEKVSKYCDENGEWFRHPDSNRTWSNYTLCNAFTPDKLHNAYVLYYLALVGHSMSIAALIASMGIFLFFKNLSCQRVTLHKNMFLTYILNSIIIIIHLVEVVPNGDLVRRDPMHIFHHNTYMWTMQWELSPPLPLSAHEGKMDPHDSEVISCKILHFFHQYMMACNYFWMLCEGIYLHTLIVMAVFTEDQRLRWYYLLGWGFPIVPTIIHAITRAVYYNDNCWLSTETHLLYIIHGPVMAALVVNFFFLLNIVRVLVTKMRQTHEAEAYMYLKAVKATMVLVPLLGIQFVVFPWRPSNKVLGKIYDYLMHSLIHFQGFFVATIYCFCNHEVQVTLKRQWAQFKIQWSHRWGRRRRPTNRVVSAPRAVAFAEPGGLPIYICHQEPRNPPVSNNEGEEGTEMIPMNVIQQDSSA
Outline: (§1)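 Receptor-expressing cells (human receptors in 1321N1, rat receptors in HEK) incubated 30 min at room temperature with peptide in HBSS/HEPES pH 7.4, 0.1% BSA, 0.5 mM IBMX. cAMP read by HTRF; EC50 from 4-parameter fit as % of maximal amylin or calcitonin response.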

lean rats = experiment: Rat acute food intake study; format: in vivo; conditions: lean male Sprague Dawley rats, 20 nmol/kg subcutaneously
Outline: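 Male Sprague Dawley rats (n=7/group), fasted 6 h, received 20 nmol/kg test compound or 60 nmol/kg pramlintide subcutaneously 30 min before food return at dark onset. Food intake recorded automatically in home cages over 3 days, binned hourly and analysed as cumulative dark-period intake; body weight taken daily.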

[4] = biological target: T2, human calcitonin receptor (hCTR) (Homo sapiens, UniProt P30988); experiment: cAMP production in 1321N1 cells with stable recombinant expression of human calcitonin receptor (hCTR); format: cell-based; conditions: cAMP, 1321N1 cells, assay buffer with 0.1% BSA; read-out: EC50 (pM) hCTR
T2 construct: expressed in transfected cells
T2 sequence (P30988 25-474): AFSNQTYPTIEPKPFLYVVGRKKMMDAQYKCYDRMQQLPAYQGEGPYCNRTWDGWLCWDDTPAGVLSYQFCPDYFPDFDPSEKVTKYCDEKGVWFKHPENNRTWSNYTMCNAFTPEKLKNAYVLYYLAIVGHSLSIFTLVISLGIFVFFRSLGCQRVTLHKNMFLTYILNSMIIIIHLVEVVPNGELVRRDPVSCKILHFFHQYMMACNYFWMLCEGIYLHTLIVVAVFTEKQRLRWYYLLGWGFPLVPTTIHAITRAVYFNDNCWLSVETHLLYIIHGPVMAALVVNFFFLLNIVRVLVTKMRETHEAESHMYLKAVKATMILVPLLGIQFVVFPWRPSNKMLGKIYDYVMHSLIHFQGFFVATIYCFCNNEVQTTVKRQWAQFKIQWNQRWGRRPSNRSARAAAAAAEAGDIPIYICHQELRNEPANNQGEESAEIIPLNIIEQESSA
Outline: as §1

[5] = biological target: T3, rat amylin receptor (calcitonin receptor co-expressed with receptor activity modifying protein, RAMP3) (Rat AMYR3) (Rattus norvegicus, UniProt P32214+Q9JJ73); experiment: cAMP production in HEK cells with stable recombinant expression of rat amylin receptor (Rat AMYR3); format: cell-based; conditions: assay buffer with 0.1% BSA
T3 construct: expressed in transfected cells
T3 sequence (P32214 25-516): T1 sequence (P32214 25-516)
T3 sequence (Q9JJ73 23-147 partner): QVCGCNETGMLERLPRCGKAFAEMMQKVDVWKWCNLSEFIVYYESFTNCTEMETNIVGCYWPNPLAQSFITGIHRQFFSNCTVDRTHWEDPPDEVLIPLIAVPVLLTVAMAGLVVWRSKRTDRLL
Outline: as §1

[6] = biological target: T4, human amylin receptor (calcitonin receptor co-expressed with receptor activity modifying protein, RAMP3) (hAMYR3) (Homo sapiens, UniProt O60896+P30988); experiment: cAMP production in 1321N1 cells with stable recombinant expression of human amylin receptor (hAMYR3); format: cell-based
T4 construct: expressed in transfected cells
T4 sequence (P30988 25-474): T2 sequence (P30988 25-474)
T4 sequence (O60896 24-148 partner): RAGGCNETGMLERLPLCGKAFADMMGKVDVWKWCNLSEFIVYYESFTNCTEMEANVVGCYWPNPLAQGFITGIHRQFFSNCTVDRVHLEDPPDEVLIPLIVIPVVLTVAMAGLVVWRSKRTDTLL
Outline: as §1

half-life ([2]; iv)	half-life ([2]; sc)	EC50 [3]	EC50 [4]	EC50 [5]	Ratio (selectivity hAMYR vs hCTR, ratio of EC50 values at the two receptors) ([6]; EC50 hCTR / EC50 hAMYR3)	EC50 ([6]; cAMP, 1321N1 cells, assay buffer with 0.1% BSA, read-out: EC50 (pM) hAMYR3)	Compound	terminal half-life in rats [1]	Cummulative food intake (% vehicle treated intake) At 12 h (lean rats; at 12 h)	Cummulative food intake (% vehicle treated intake) At 24 h (lean rats; at 24 h)	Cummulative food intake (% vehicle treated intake) At 48 h (lean rats; at 48 h)
–	–	–	–	–	–	–	amylin (KCNTATCATQRLANFLVHSSNNFGAILSSTNVGSNTY; not fully specified (C-terminus, bridges); cysteine pairing not given here; UniProt P10997 34-70, looked up) [native amylin, of which pramlintide is a synthetic analogue with three proline substitutions]	around 13 minutes	–	–	–
6.9 h	9.3 h	522 pM	1200 pM	5.6 pM	9.2	130 pM	CC[C@H](C)[C@H](NC(=O)[C@@H]1CCCN1C(=O)CNC(=O)[C@H](Cc1ccccc1)NC(=O)[C@H](CC(N)=O)NC(=O)[C@H](CC(N)=O)NC(=O)[C@H](CO)NC(=O)[C@H](CO)NC(=O)[C@H](Cc1c[nH]cn1)NC(=O)C(C)(C)NC(=O)[C@H](CC(C)C)NC(=O)[C@H](Cc1ccccc1)NC(=O)[C@H](CC(N)=O)NC(=O)[C@H](C)NC(=O)[C@H](CC(C)C)NC(=O)[C@H](CCCNC(=N)N)NC(=O)[C@H](CCC(N)=O)NC(=O)[C@@H](NC(=O)[C@H](C)NC(=O)[C@@H]1CSSC[C@H](NC(=O)[C@@H](N)CCCCNC(=O)CC[C@H](NC(=O)CCCCCCCCCCCCCCCCC(=O)O)C(=O)O)C(=O)N[C@@H](CC(N)=O)C(=O)N[C@@H]([C@@H](C)O)C(=O)N[C@@H](C)C(=O)N[C@@H]([C@@H](C)O)C(=O)N1)[C@@H](C)O)C(=O)N[C@@H](CC(C)C)C(=O)N1CCC[C@H]1C(=O)N1CCC[C@H]1C(=O)N[C@H](C(=O)N[C@@H](CC(N)=O)C(=O)N[C@H](C(=O)NCC(=O)N[C@@H](CO)C(=O)N[C@@H](CC(N)=O)C(=O)N[C@H](C(=O)N[C@@H](Cc1ccc(O)cc1)C(N)=O)[C@@H](C)O)C(C)C)[C@@H](C)O [Peptide 149] (H-K([γGlu-C18 diacid])CNTATCATQRLANFL[Aib]HSSNNFGPILPPTNVGSNTY-NH2; disulfide 2-7; N-terminus assumed)	–	31 % vehicle treated intake	31.8 % vehicle treated intake	17.5 % vehicle treated intake
